Experimental data from patent US20100125059A1, “1-BIARYLAZETIDINONE DERIVATIVE” (Teijin Pharma Limited, priority 2007, published 2010).
Read-outs that look alike come from different tables or passages of the source.

Test system: hamsters fed a high cholesterol diet
Assay: Measurement of lipid lowering effect in hamsters fed a high cholesterol diet
Format: in vivo, Male Golden Syrian hamsters
Conditions: Mesocricetus auratus, po, 168 h, gavage once daily, 7 days
Description: Male Golden Syrian hamsters are divided into groups each consisting of 6 animals and fed a controlled high cholesterol diet (CE-2 containing 0.5% cholesterol; CLEA Japan, Inc.) for 28 days at most. From the start of feeding of the high cholesterol diet, the test compounds are administered by gavage once daily. For the administration, 0.2 mL of corn oil alone per 100 g (control group) or a solution (or suspension) of the test compound in corn oil at a dose of 0.01 to 10 mg/kg was given. At the same time, a group fed with a normal diet during the same study period is handled as a normal group. 4 hours after the last administration, whole blood is collected from the abdominal aorta under light anesthesia with ether and serum is separated from the blood. Further, livers are harvested, wet liver weights are measured, and part (about 0.5 g) of the harvested livers are extracted and weighed. 2-propanol in an amount 4 times the weight of the extracted livers are added, the resulted mixtures are homogenized, and the centrifuged supernatant are recovered and used as liver-derived samples.
Serum and liver TC concentrations are determined by an enzyme method using L-type Wako CHO•H (Wako Pure Chemical Industries Ltd.) or Cholestest CHO (Daiichi Pure Chemicals Co., Ltd.). Serum TG concentrations are determined by an enzyme method using L-type Wako TG•H (Wako Pure Chemical Industries Ltd.) or Autosera S TG-N (Daiichi Pure Chemicals Co., Ltd.) and a free glycerine elimination method. LDL-C concentrations are determined by a direct method using L-type Wako LDL-C•M (Wako Pure Chemical Industries Ltd.) or Cholestest LDL (Daiichi Pure Chemicals Co., Ltd.). Human serum was commonly used as a sample for the calibration curve for determinations of serum and liver TC concentrations, serum TG concentration, and serum LDL-C concentration. The effect of the test compound is shown by a suppression rate (%) of an increase in serum TC concentration due to feeding of the high cholesterol diet, a serum TG lowering rate (%), a suppression rate (%) of an increase in serum LDL-C concentration due to feeding of the high cholesterol diet, and a suppression rate (%) of an increase in liver TC concentration due to feeding of the high cholesterol diet calculated in accordance with the following equations.
In the Equation 2, A is the control group, B is the test compound group, and C is the normal group.
In the Equation 3, A is the control group, B is the test compound group, and C is the normal group.
In the Equation 4, A is the control group, B is the test compound group, and C is the normal group.
In the Equation 5, A is the control group, and B is the test compound group.
The following results were obtained from the study by this method on the effects of lowering serum TC, LDL-C, and TG, and liver TC in the hamsters fed with a high cholesterol diet which were given the test compounds for 7 days.
The compounds in which pyridyl of compound of example 51 and 55 was exchanged for phenyl, were used as comparative compound 1 and 2, respectively. In the same method as Example 112, the suppression rate (%) of an increase in serum TC concentration of comparative compound 1 and 2 were calculated.

[1] = read-out: serum LDL-C lowering effect (suppression rate of an increase in serum LDL-C concentration)
[2] = read-out: serum TC lowering effect (suppression rate of an increase in serum TC concentration)
[3] = read-out: liver TC lowering effect (suppression rate of an increase in liver TC concentration)
[4] = read-out: serum TG lowering effect (serum TG lowering rate)

Row | SMILES | inhibition in vivo at 0.01 mg/kg [1] | inhibition in vivo at 0.01 mg/kg [2] | inhibition in vivo at 0.1 mg/kg [1] | inhibition in vivo at 0.1 mg/kg [2] | other results
1 | O=C1[C@H](SC[C@H](O)c2ccc(Cl)cc2)[C@@H](c2ccc(O)cc2)N1c1ccc(-c2cncc(F)c2)cc1 [Example 70, (3R,4R)-3-[(2R)-2-(4-chlorophenyl)-2-hydroxyethylthio]-1-[4-(5-fluoropyridin-3-yl)phenyl]-4-(4-hydroxyphenyl)azetidin-2-one] | ≥ 30% | ≥ 30% |  |  | inhibition in vivo at 0.1 mg/kg [3]: ≥ 50%
2 | O=Cc1cncc(-c2ccc(N3C(=O)[C@H](SC[C@H](O)c4ccc(F)cc4)[C@H]3c3ccc(O)cc3)cc2)c1 [Example 71, 5-(4-{(3R,4R)-3-[(2R)-2-(4-fluorophenyl)-2-hydroxyethylthio]-4-(4-hydroxyphenyl)-2-oxoazetidinyl}phenyl)pyridine-3-carbaldehyde] |  |  | ≥ 50% | ≥ 50% | 
3 | O=C1[C@H](SC[C@H](O)c2ccc(Cl)cc2)[C@@H](c2ccc(O)cc2O)N1c1ccc(-c2cncc(F)c2)cc1 [Example 72, (3R,4R)-3-[(2R)-2-(4-chlorophenyl)-2-hydroxyethylthio]-4-(2,4-dihydroxyphenyl)-1-[4-(5-fluoropyridin-3-yl)phenyl]azetidin-2-one] |  |  | ≥ 50% | ≥ 50% | 
4 | O=C1[C@H](SC[C@H](O)c2ccc(F)cc2)[C@@H](c2ccc(O)cc2O)N1c1ccc(-c2cncc(F)c2)cc1 [Example 73, (3R,4R)-3-[(2R)-2-(4-fluorophenyl)-2-hydroxyethylthio]-4-(2,4-dihydroxyphenyl)-1-[4-(5-fluoropyridin-3-yl)phenyl]azetidin-2-one] |  | ≥ 30% | ≥ 50% | ≥ 50% | 
5 | Cc1cc(O)ccc1[C@@H]1[C@@H](SC[C@H](O)c2ccc(F)cc2)C(=O)N1c1ccc(-c2cncc(F)c2)cc1 [Example 74, (3R,4R)-3-[(2R)-2-(4-fluorophenyl)-2-hydroxyethylthio]-1-[4-(5-fluoropyridin-3-yl)phenyl]-4-(4-hydroxy-2-methylphenyl)azetidin-2-one] |  | ≥ 30% | ≥ 50% |  | inhibition in vivo at 0.01 mg/kg [3]: ≥ 30%; inhibition in vivo at 0.1 mg/kg [3]: ≥ 50%
6 | O=C1[C@H](SC[C@H](O)c2ccc(Cl)cc2)[C@@H](c2ccc(O)cc2O)N1c1ccc(-c2cncc(C(F)(F)F)c2)cc1 [Example 75, (3R,4R)-3-[(2R)-2-(4-chlorophenyl)-2-hydroxyethylthio]-4-(2,4-dihydroxyphenyl)-1-[4-(5-trifluoromethylpyridin-3-yl)phenyl]azetidin-2-one] | ≥ 30% |  |  |  | inhibition in vivo at 0.01 mg/kg [3]: ≥ 30%; inhibition in vivo at 0.1 mg/kg [3]: ≥ 50%; inhibition in vivo at 0.1 mg/kg [4]: ≥ 20%
7 | O=C1[C@H](SC[C@H](O)c2ccc(F)cc2)[C@@H](c2ccc(O)cc2O)N1c1ccc(-c2cncc(C(F)(F)F)c2)cc1 [Example 76, (3R,4R)-3-[(2R)-2-(4-fluorophenyl)-2-hydroxyethylthio]-4-(2,4-dihydroxyphenyl)-1-[4-(5-trifluoromethylpyridin-3-yl)phenyl]azetidin-2-one] |  | ≥ 30% |  |  | 
8 | O=C1[C@H](SC[C@H](O)c2ccccc2F)[C@@H](c2ccc(O)cc2)N1c1ccc(-c2cccnc2)cc1 [Example 77, (3R,4R)-3-[(2R)-2-(2-fluorophenyl)-2-hydroxyethylthio]-4-(4-hydroxyphenyl)-1-[4-(pyridin-3-yl)phenyl]azetidin-2-one] |  |  |  |  | inhibition in vivo at 0.1 mg/kg [4]: ≥ 20%
9 | Cc1cc(O)ccc1[C@@H]1[C@@H](SC[C@H](O)c2ccc(F)cc2)C(=O)N1c1ccc(-c2cncc(C#N)c2)cc1 [Example 80, 5-(4-{(3R,4R)-3-[(2R)-2-(4-fluorophenyl)-2-hydroxyethylthio]-4-(4-hydroxy-2-methylphenyl)-2-oxoazetidinyl}phenyl)pyridine-3-carbonitrile] |  |  | ≥ 50% | ≥ 50% | 
10 | O=C1[C@H](SC[C@H](O)c2ccc(Cl)c(F)c2)[C@@H](c2ccc(O)cc2)N1c1ccc(-c2cncc(F)c2)cc1 [Example 82, (3R,4R)-3-[(2R)-2-(4-chloro-3-fluorophenyl)-2-hydroxyethylthio]-1-[4-(5-fluoropyridin-3-yl)phenyl]-4-(4-hydroxyphenyl)azetidin-2-one] |  |  | ≥ 50% | ≥ 50% | 
11 | COc1ccc([C@@H](O)CS[C@H]2C(=O)N(c3ccc(-c4cccnc4)cc3)[C@@H]2c2ccc(O)cc2)cc1 [Example 84, (3R,4R)-3-[(2R)-2-hydroxy-2-(4-methoxyphenyl)ethylthio]-4-(4-hydroxyphenyl)-1-[4-(pyridin-3-yl)phenyl]azetidin-2-one] |  |  |  |  | inhibition in vivo at 0.1 mg/kg [3]: ≥ 50%
12 | O=C1[C@H](SC[C@H](O)c2ccc(Cl)cc2O)[C@@H](c2ccc(O)cc2)N1c1ccc(-c2cccnc2)cc1 [Example 89, (3R,4R)-3-[(2R)-2-(4-chloro-2-hydroxyphenyl)-2-hydroxyethylthio]-4-(4-hydroxyphenyl)-1-[4-(pyridin-3-yl)phenyl]azetidin-2-one] |  |  | ≥ 50% | ≥ 50% | 
13 | O=C1[C@H](SC[C@H](O)c2ccc(F)cc2)[C@@H](c2ccc(O)cc2O)N1c1ccc(-c2cncc(Cl)c2)cc1 [Example 92, (3R,4R)-3-[(2R)-2-(4-fluorophenyl)-2-hydroxyethylthio]-4-(2,4-dihydroxyphenyl)-1-[4-(5-chloropyridin-3-yl)phenyl]azetidin-2-one] | ≥ 30% | ≥ 30% |  |  | inhibition in vivo at 0.1 mg/kg [4]: ≥ 20%
14 | Cc1cncc(-c2ccc(N3C(=O)[C@H](SC[C@H](O)c4ccc(F)cc4)[C@H]3c3ccc(O)cc3O)cc2)c1 [Example 93, (3R,4R)-3-[(2R)-2-(4-fluorophenyl)-2-hydroxyethylthio]-4-(2,4-dihydroxyphenyl)-1-[4-(5-methylpyridin-3-yl)phenyl]azetidin-2-one] | ≥ 30% | ≥ 30% |  |  | inhibition in vivo at 0.1 mg/kg [4]: ≥ 20%
15 | Cc1ccc(-c2ccc(N3C(=O)[C@H](SC[C@H](O)c4ccc(F)cc4)[C@H]3c3ccc(O)cc3O)cc2)cn1 [Example 95, (3R,4R)-3-[(2R)-2-(4-fluorophenyl)-2-hydroxyethylthio]-4-(2,4-dihydroxyphenyl)-1-[4-(6-methylpyridin-3-yl)phenyl]azetidin-2-one] | ≥ 30% | ≥ 30% |  |  | 
16 | O=C1[C@H](SC[C@H](O)c2ccc(Cl)cc2)[C@@H](c2ccc(O)cc2O)N1c1ccc(-c2cncc(Cl)c2)cc1 [Example 96, (3R,4R)-3-[(2R)-2-(4-chlorophenyl)-2-hydroxyethylthio]-4-(2,4-dihydroxyphenyl)-1-[4-(5-chloropyridin-3-yl)phenyl]azetidin-2-one] |  |  |  |  | inhibition in vivo at 0.01 mg/kg [3]: ≥ 30%
17 | Cc1cncc(-c2ccc(N3C(=O)[C@H](SC[C@H](O)c4ccc(Cl)cc4)[C@H]3c3ccc(O)cc3O)cc2)c1 [Example 97, (3R,4R)-3-[(2R)-2-(4-chlorophenyl)-2-hydroxyethylthio]-4-(2,4-dihydroxyphenyl)-1-[4-(5-methylpyridin-3-yl)phenyl]azetidin-2-one] |  |  | ≥ 50% | ≥ 50% | 
18 | Cc1ccc(-c2ccc(N3C(=O)[C@H](SC[C@H](O)c4ccc(Cl)cc4)[C@H]3c3ccc(O)cc3O)cc2)cn1 [Example 98, (3R,4R)-3-[(2R)-2-(4-chlorophenyl)-2-hydroxyethylthio]-4-(2,4-dihydroxyphenyl)-1-[4-(6-methylpyridin-3-yl)phenyl]azetidin-2-one] | ≥ 30% |  |  |  | 
